# Several values for one entry are separate records, joined by “and”; a condition that tells them apart may be missing. Equal values may be shown once.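 All cell lines were grown in 96-well plates and treated with compound for 48 hours. The concentration for 50% growth inhibition is given as GI50. The concentration for full growth arrest is given as TGI.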
# How the values were obtained:
# Assay in all cases: NCI tumour cell line growth inhibition, 48 h
# [1] = system: ACHN renal
# [2] = system: MDA-N
# [3] = system: HOP-18 NSCLC
# [4] = system: LXFL 529 NSCLC
# [5] = system: XF 498 CNS
# [6] = system: DMS 114 small cell lung
# [7] = system: DMS 273 small cell lung
# [8] = system: SNB-78 CNS
# [9] = system: KM20L2 colon
# [10] = system: DLD-1 colon
# [11] = system: M19-MEL melanoma
Structure (SMILES),GI50 [1],TGI [1],further results
Cn1cc(-c2ccc3c(Nc4cccc(NC(=O)Nc5cccc(F)c5)c4)ncnc3c2)cn1,2.17 µM,13.2 µM,–
COc1cc(C2c3[nH]c4ccccc4c3C[C@H]3COC(=O)N23)cc(OC)c1OC (stereo partly drawn),< 0.01 µM,> 100 µM,TGI [2]: 0.0492 µM
COc1cc2c(cc1O)CC[C@@H]1[C@@H]2CC[C@]2(C)[C@@H](NCCN(C)C)CC[C@@H]12,0.459 µM,0.991 µM,–
Cc1c(N2CCCC2)cc2c(c1NC(=O)c1ccccc1Cl)C(C)(C)CC2(C)C,–,28.4 µM,TGI [2]: 28.5 µM
CC[C@]1(O)CC(OC2CC(N(C)C)C(O)C(C)O2)c2c(cc3c(c2O)C(=O)c2c(O)cccc2C3=O)[C@@H]1C(=O)OC (stereo partly drawn),–,0.963 µM,TGI [2]: 1.92 µM
CC(C)(C)NNC(=O)/C(=C/c1ccc([N+](=O)[O-])cc1)NC(=O)c1ccccc1,–,> 100 µM,TGI [3]: > 100 µM; TGI [4]: > 100 µM; TGI [5]: > 100 µM; TGI [6]: 35.9 µM; TGI [7]: 80 µM; TGI [8]: > 100 µM; TGI [9]: > 100 µM; TGI [10]: > 100 µM; TGI [11]: > 100 µM
CCCCCCCCCCCCNC(C)=O,–,70 µM,TGI [2]: 31 µM
O=C(Nc1ccc(Cl)c(Cl)c1)c1cccc(NC2=C(Cl)C(=O)N(Cc3ccccc3)C2=O)c1,39.8 µM,> 100 µM,–
CN(Cc1cnc2nc(N)nc(N)c2n1)c1ccc(C(=O)NC(CCC(=O)O)C(=O)O)cc1C(F)(F)F (stereo not drawn),–,> 100 µM,–
C/C(=N\NC(=O)c1sc(=S)n(C)c1N)c1cc2ccccc2o1,13.4 µM,38.4 µM,–
CC(C)/C=C1\CCC(CN2CCCC2)C1=O (stereo not drawn),–,32.2 µM,TGI [3]: 17.3 µM; TGI [4]: 10.1 µM; TGI [5]: 31.5 µM; TGI [6]: 34.5 µM; TGI [8]: 51.2 µM; TGI [9]: 36 µM; TGI [10]: 10.4 µM; TGI [11]: > 60.4 µM
CCOC(=O)c1c2c(c(O)c3ccccc3c(O)n(Cc3ccc(OC)cc3)c1C)C(=O)C=CC2=O,> 100 µM,> 100 µM,–
COC(=O)CCC(=O)C(=O)OC,16300 µM,–,–
CCN(CC)CCOCC[C@H]1CC[C@H]2[C@@H]3[C@H](C)Cc4cc(OS(N)(=O)=O)ccc4[C@H]3CC[C@]12C,1.95 µM,5.33 µM,–
CCCCON(OC(=O)c1ccccc1)C(=O)c1ccccc1,> 100 µM,> 100 µM,–
CC(C)[C@]12O[C@H]1[C@@H]1O[C@]13[C@]1(O[C@H]1C[C@H]1C4=C(CC[C@@]13C)C(=O)OC4)[C@@H]2O,0.0102 µM,> 100 µM,TGI [2]: 0.0238 µM
CCc1nc(N)nc(N)c1-c1ccc(NCCN)c([N+](=O)[O-])c1,–,> 100 µM,TGI [2]: > 100 µM
C[C@@H]1COCCN1c1cc(C2([S@](C)(=N)=O)CC2)nc(-c2ccnc3[nH]ccc23)n1,0.818 µM and 1.65 µM,> 100 µM,–
OC(c1cccc(-n2ccc(C(F)(F)F)n2)c1)c1cnccc1NC1CCCCCC1 (stereo not drawn),1.65 µM,3.02 µM,–
COc1ccc2oc(=O)cc(C(c3ccc[nH]3)c3ccc[nH]3)c2c1,0.124 µM,13.1 µM,–
COc1ccccc1NC(=O)c1sc2nc3c(cc2c1N)C(=O)CCC3,6.2 µM,> 100 µM,–

Structure (SMILES),GI50 [1],TGI [1],further results
Clc1ncnc(Cl)c1Cl,–,> 100 µM,TGI [2]: > 100 µM
FC(F)(F)Oc1cccc(-c2cnc3ccc(-c4ccncc4)nn23)c1,0.447 µM,4.8 µM,–
O=C(O)CCNc1ccccc1C(=O)O,–,> 100 µM,TGI [2]: > 100 µM
Cc1cccc(NC(=O)CCc2ccc(N3C(N)=NC(N)=NC3(C)C)cc2)c1,> 100 µM,> 100 µM,–
COc1ccc(OC)c(/C=N/NC(=O)Cc2csc3nc(-c4ccc(Br)cc4)cn23)c1,16.9 µM,34.5 µM,–
Clc1ccc(CSC(Cn2ccnc2)c2ccc(Cl)cc2Cl)cc1 (stereo not drawn),2.28 µM,6.5 µM,–
CN(C)CCOc1ccc(-c2nc(-c3ccc4c(c3)CC/C4=N\O)c(-c3ccncc3)[nH]2)cc1,4.79 µM and 5.03 µM,9.01 µM and 22 µM,–
CC[C@]12CCCN3CCc4c(n(c5ccccc45)C(=O)C1)[C@@H]32,–,> 100 µM,TGI [2]: 4.79 µM
O=C1C(Cl)=C(Nc2cccc(Cl)c2)C(=O)N1Cc1ccccc1,14 µM,28.8 µM,–
CC(=O)NCCc1c2c(c3nccc4c3c1Nc1ccccc1-4)OCS2,0.199 µM,3.27 µM,GI50 [2]: 1.45 µM; TGI [2]: 15.5 µM
CS/C(=N\C(=S)N(C)C)N(c1ccccc1)c1nc(=[N+](C)C)ss1,–,> 100 µM,TGI [4]: 15.9 µM; TGI [6]: 2.28 µM; TGI [7]: 15.4 µM; TGI [8]: 92.8 µM; TGI [9]: 50.3 µM; TGI [11]: 14.8 µM
CCOC(=O)c1ccc2[nH]c(-c3ccc(S(=O)(=O)F)cc3)cc(=O)c2c1,–,84.2 µM,TGI [2]: > 100 µM
O=C1c2ccccc2-c2c1c1ccccc1c(=O)n2CCCCNCCCn1c2c(c3ccccc3c1=O)C(=O)c1ccccc1-2,0.0416 µM,2.31 µM,–
CCCCC[C@H](O)/C=C/[C@@H]1[C@@H](C/C=C\CCCC(=O)O)[C@@H](O)C[C@H]1O,> 100 µM,> 100 µM,–
CC12CCC3C(CCC4Cc5[nH]c6ccccc6c5CC43C)C1CCC2O (stereo not drawn),0.967 µM,> 100 µM,–
Nc1c(C(=O)c2cccc(CCCN3CCOCC3)c2)cnn1-c1ccc(F)cc1,> 25 µM,> 25 µM,–
COc1cc(C(=O)/C=C/c2c(C)n([O-])c3ccc(C)cc3[n+]2=O)cc(OC)c1OC,2.23 µM,5.6 µM,–
NC(=O)NNCc1ccccc1,–,> 100 µM,TGI [2]: > 100 µM
Cc1cc2nc(C(C)C(=O)c3ccc(Cl)cc3)c(=O)[nH]c2cc1C (stereo not drawn),–,> 100 µM,TGI [2]: 40.4 µM
O=[N+]([O-])c1ccc(S(=O)(=O)Cc2ccccc2)c([N+](=O)[O-])c1,–,2.92 µM,TGI [2]: 4.09 µM
CCOc1ccccc1NC(=O)CC1C(=O)Nc2ccccc2S1=O (stereo not drawn),–,> 100 µM,TGI [4]: > 100 µM; TGI [5]: > 100 µM; TGI [6]: > 100 µM; TGI [7]: > 100 µM; TGI [8]: > 100 µM; TGI [9]: > 100 µM; TGI [10]: > 100 µM; TGI [11]: > 100 µM

Structure (SMILES),GI50 [1],TGI [1],further results
COc1cc(NS(C)(=O)=O)ccc1Nc1c2ccc([N+](=O)[O-])cc2nc2c(C)cccc12,0.371 µM,4.29 µM,–
CCSCC1CC(O)(c2ccccc2)C(c2ccccc2)C(c2ccc(Cl)cc2)O1 (stereo not drawn),1.81 µM,3.68 µM,–
Cc1ccc([N+](=O)[O-])cc1NC(=O)Nc1cccc(F)c1,3.78 µM,23 µM,–
Cc1nc(-c2cccc(Nc3nc(-c4ccc(Cl)cc4)cs3)c2)cs1,10.1 µM,17.5 µM,–
O=C(Nc1ccccc1-c1n[nH]c(=S)[nH]c1=O)C(F)(F)F,–,> 100 µM,TGI [4]: > 100 µM; TGI [5]: > 100 µM; TGI [6]: > 100 µM; TGI [7]: > 100 µM; TGI [8]: > 100 µM; TGI [10]: > 100 µM; TGI [11]: > 100 µM
COc1ccc(-c2cc(-c3cc(Cl)ccc3Cl)nc3n[nH]c(N)c23)cc1,37.8 µM,> 100 µM,–
NCCNc1c2c(c(NCCN)c3c(CO)c[nH]c13)C(=O)c1ccccc1C2=O,35.9 µM,> 100 µM,–
COc1ccc(C2CC(c3cc(OC)c(OC)c(OC)c3)=NO2)cc1OCCCCOc1cc2c(cc1OC)C(=O)N1CCC[C@H]1C=N2 (stereo partly drawn),2.41 µM,5.71 µM,–
CCN1CCN(Cc2ccc(-c3cc4c(N[C@H](C)c5ccccc5)ncnc4[nH]3)cc2)CC1,0.0625 µM and 0.162 µM,12.5 µM and > 10 µM,–
CCNC(=O)[C@@H]1CCCN2C(=O)CC[C@H](NC(=O)[C@H](Cc3ccc(OP(=O)(O)O)cc3)NC(C)=O)C(=O)N12,> 25 µM,> 25 µM,–
O=C(NC1CCN(Cc2ccccc2)CC1)c1cc(-c2ccncc2)nc2ccc(Cl)cc12,6.71 µM,24.7 µM,–
O=C(O)C/C(=C\c1ccco1)C(=O)O,–,> 100 µM,TGI [2]: > 100 µM
C=CC[n+]1c(/C=C/C=C2\N(C)c3ccccc3C2(C)C)sc2ccc(OC)cc21,1.65 µM,10.9 µM,–
FC(F)(F)c1nc(N2CCCC2)ncc1-c1nnnn1-c1ccc(Cl)cc1,18.7 µM,> 100 µM,–
F,3050 µM,> 6870 µM,–
CC(=O)N[C@@H](Cc1ccc(OP(=O)(O)O)cc1)C(=O)N[C@H]1CCC(=O)N2CCC[C@@H](C(=O)NCc3ccc(Cl)cc3)N2C1=O,> 25 µM,> 25 µM,–
N#Cc1c(-c2ccccc2)nc(SCC2CO2)nc1N1CCOCC1 (stereo not drawn),4.27 µM,> 100 µM,–
COc1ccc2[nH]c(=O)c3c4ccccc4cn3c2c1,0.486 µM,1.72 µM,–
Cc1ccc(NC(=O)c2cc3cc(N=Nc4ccc(Br)cc4)ccc3oc2=O)cc1,–,> 100 µM,TGI [5]: > 100 µM; TGI [6]: > 100 µM; TGI [7]: > 100 µM; TGI [8]: > 100 µM; TGI [10]: > 100 µM
Cc1ccc(S(=O)(=O)OC2CCN(C)CC2)cc1,–,> 100 µM,TGI [2]: > 100 µM
